Assay results: article PMC9377723 (Clinical Cancer Research, 2021)
“Also recorded” adds a separate entry of the source. Where two headings read alike, the source gives them in different places.

Key:
[1] = tested on: patients with HR+/HER2− advanced breast cancer; experiment: MONALEESA-7 adverse events; type: in vivo; conditions: adverse event of special interest
[2] = Steady-state plasma pharmacokinetics; type: in vivo, patients
[3] = tested on: HR+/HER2− advanced breast cancer; conditions: cited from earlier work
plasma estradiol = experiment: Plasma estradiol concentration, baseline vs cycle 3 day 15; type: in vivo, patients
[4] = tested on: HR+/HER2− advanced breast cancer; type: in vivo, patients; conditions: for Median PFS: updated analysis
[5] = patients less than 40 years of age

CN(C)C(=O)c1cc2cnc(Nc3ccc(N4CCNCC4)cn3)nc2n1C1CCCC1 [Ribociclib, ribociclib]
Hepatobiliary toxicity, grade 3 or 4 [1]: 12% | Neutropenia, grade 3 or 4 [1]: 65% | Prolonged QT interval, grade 3 or 4 [1]: 2% | Drug–drug interaction between ribociclib and NSAI partner ([2]; in vivo): No drug–drug interactions; also recorded: no apparent drug–drug interaction | Median OS, prespecified second interim (final) analysis ([3]; median follow-up 34.6 months): not reached | Median PFS (primary endpoint) ([3]; primary analysis): 23.8 months | Patients with estradiol below the minimum detectable limit (0.5 pg/mL) (plasma estradiol; 86 of 90 patients): 96% | Mean percentage decrease in plasma estradiol concentration compared with baseline (plasma estradiol; patients who received an NSAI): 89% | mOS (median overall survival) ([4]; Age: <40 years): 51.3 months | mOS (median overall survival) ([4]; Age: ≥40 years): 58.8 months | Increase in survival over the MONALEESA-7 placebo arm ([4]; All patients): 22% | Kaplan–Meier estimated OS at 48 months (survival rate at 4 years) ([4]; All patients): 60% | Median chemotherapy-free survival (CFS) ([4]; All patients): 42.4 months | PFS2 HR (95% CI) vs placebo ([4]; All patients): 0.68 | PFS2 Median ([4]; All patients): 44.2 mo | Patients who had died at data cut-off ([4]; All patients): 42% | Patients who received chemotherapy as a subsequent therapy at any time ([4]; All patients): 43% | Patients with disease progression on subsequent therapy or death (PFS2 events) ([4]; All patients): 53% | Patients with receipt of chemotherapy or death ([4]; All patients): 57% | Survival rate at 54 months ([4]; All patients): 53% | Improvement in OS over ET alone ([4]; All patients, 58.7 vs 48.0 months): 10.7 months | mOS (median overall survival) ([4]; All patients, median follow-up 53.5 months): 58.7 months | mOS (median overall survival) ([4]; Chemotherapy (metastatic): Yes): 47.2 months | mOS (median overall survival) ([4]; Disease-free interval: De novo): not reached | mOS (median overall survival) ([4]; Endocrine combination partner: NSAI and goserelin): 58.7 months | mOS (median overall survival) ([4]; Endocrine combination partner: Tamoxifen and goserelin): not estimable | Patients who died ([4]; Patients receiving an NSAI): 43% | Patients who died ([4]; Patients receiving tamoxifen): 39% | Delay in chemotherapy vs placebo, without censoring ([4]; difference in median chemotherapy-free survival): 16.0 month | Delay in chemotherapy vs placebo, censoring for death ([4]; difference in median time to first chemotherapy): 14.1 month | Median time to first chemotherapy (TTC) ([4]; in vivo): 50.9 months | Duration of first subsequent antineoplastic therapy after discontinuation of study treatment ([4]; overall): 7.5 months | Reduction in the risk of death [4, 5]: 35% | Median PFS [4, 5]: 29.7 months | Median PFS ([4]; patients ≥40 years of age): 26.4 months

CC/C(=C(\c1ccccc1)c1ccc(OCCN(C)C)cc1)c1ccccc1 [Tamoxifen, tamoxifen]
Exposure with ribociclib versus placebo ([2]; tamoxifen 20 mg): approximately 2 times
